Several values for one entry are separate records, joined by “and”; a condition that tells them apart may be missing. Equal entries are not always repeated. Where two headings read alike, the source gives them in different places.
Tests used:
[1] = test system: nephritis caused by cisplatin; experiment: Effect on nephritis caused by cisplatin -1 (Example 2); format: in vivo, female Fischer rats; conditions: with cisplatin 2 mg/kg hypodermically for 5 days, 24 h after final administration
Description: Effect on nephritis caused by cisplatin -1
Five female Fischer rats (5 weeks of age) per group were administered hypodermically with 2 mg/kg of cisplatin for 5 days, and at the same time, HX-1920 was administered orally in a dose of 50 mg or 150 mg/kg, or administered intraperitoneally in a dose of 10 or 30 mg/kg. Twenty-four hours after the final administration, the rats were sacrificed, and their blood urea nitrogen (BUN) and creatinine were measured.

[2] = test system: nephritis caused by cisplatin; experiment: Effect on nephritis caused by cisplatin - 2 (Example 3); format: in vivo, female Fischer rats; conditions: with cisplatin 1 mg/kg hypodermically for 8 days, 24 h after final administration
Description: Effect on nephritis caused by cisplatin - 2
Six female Fischer rats (8 weeks of age) per group were administered hypodermically with 1 mg/kg of cisplatin for 8 days, and at the same time, HX-1920 was administered orally in a dose of 10 mg or 100 mg/kg. In both the administrations, the blood urea nitrogen (BUN) and creatinine measured 24 hours after the final administration tended to show lower values. […]

[3] = test system: nephritis caused by cisplatin; experiment: Effect on nephritis caused by cisplatin - 3 (Example 4), BUN and survival; format: in vivo, male ICR rats; conditions: with cisplatin 3 mg/kg subcutaneously for 4 days
Description: Effect on nephritis caused by cisplatin - 3
Ten male ICR rats (8 weeks of age) per group were administered subcutaneously with 3 mg/kg of cisplatin for 4 days, and at the same, HX-1920 was orally administered in a dose of 100 mg/kg. Sixteen hours after the final administration, 5 rats of each group were measured for blood urea nitrogen (BUN), and the survival ratios of the remaining 5 rats of each group for the subsequent 5 days were examined. […] Thus, the effect of the administration of HX-1920 on the alleviation of renal dysfunctions was observed. […]

[4] = test system: nephritis caused by cisplatin; experiment: Effect on nephritis caused by cisplatin - 4 (Example 5); format: in vivo, female F344 rats; conditions: for BUN / Creatinine: cisplatin 1 mg/kg hypodermically for 8 days, 24 h after final cisplatin; for inhibition at 100 mg/kg: Rattus norvegicus, po, 100 mg/kg p.o., inhibition of the cisplatin-induced increase
Description: Effect on nephritis caused by cisplatin - 4
Six to seven female F344 rats per group weighing about 150 g, per group, were administered hypodermically in the dorsal portion with 1 mg/kg of cisplatin dissolved in a physiological saline solution once a day over 8 days. Twenty-four hours after the final administration of the cisplatin, the rats were anesthtized with ether, and the blood was collected from each rat, centrifuged and measured for blood urea nitrogen (BUN) and creatinine with an autoanalyzer Olympus AU-550.
HX-1920 which was a substance to be tested was dissolved in a 2.5 % NaHCO₃, and the resultant solution was administered orally in a dose of 10 or 100 mg/kg over 8 days immediately before the administration of the cisplatin.
The increases in BUN and creatinine by the administration of cisplatin are considered to be characteristics in acute renal failure. […]

[5] = test system: vomiting caused by cisplatin; experiment: Effect on inhibition of vomiting caused by cisplatin -1 (Example 6), degree of vomiting per dog; format: in vivo; parameters: key: III: Extreme; II: Moderate; I: Slight; 0: No vomiting; conditions: 20 mg/kg p.o. (capsule) 30 min before i.v. cisplatin; individual dogs
Description: Effect on inhibition of vomiting caused by cisplatin -1
Five dogs (7 - 12.5 kg) per group were admininistered intravenously with 0.4 mg/kg of cisplatin per day for the initial 3 days and with 0.8 mg/kg of cisplatin per day for the subsequent 1 day. HX-1920 in a dose of 20 mg/kg was encapsulated and administered 30 minutes before the intravenous administration of cisplatin. Separately, Nauzelin (trade name, manufactured by Kyowa Hakko Kogyo Co., Ltd.), which was a domperidone type antiemetic, was administered to another group of five dogs in a dose of 2 mg/kg for 7 days. […] The vomiting was cured after 24 hours. However, the same symptom was repeatedly manifested when cisplatin was administered. […] Thus, the effect of HX-1920 on the alleviation of the vomit-inducing activity of the carcinostatic cisplatin was evident.

[6] = test system: vomiting induced by the cisplatin; experiment: Effect on inhibition of vomiting caused by cisplatin -2 (Example 7), manifestation ratio; format: in vivo, mongrel dogs
Description: Effect on inhibition of vomiting caused by cisplatin -2
Female and male mongrel dogs weiging about 10 kg were administered intravenously with 0.4 mg/kg/day of cisplatin dissolved in a physiological saline solution for the initial 3 days and with 0.8 mg/kg/day of cisplatin for the subsequent 4 days to examine the effects of substances to be tested on the basis of a manifestation ratio, as an index, of vomiting induced by the cisplatin.
HX-1920, which was a substance to be tested, was dissolved in a 10 % Nikkol solution (Nikkol: trade name, dissolving aid manufactured by Nikko Chemical Co., Ltd.) containing 1 % NaHCO₃, and put into gelatin soft capsules, and the capsules were administered orally 30 minutes before the administration of cisplatin.
In addition, as a known domperidone type antiemetic, a 1 % Nauzelin powder was put into gelatin soft capsules, and administered orally 30 minutes before the administration of cisplatin.

[7] = test system: stomach contraction caused by cisplatin; experiment: Effect on inhibition of stomach contraction caused by cisplatin (Example 8); format: in vivo, female Fischer rats; conditions: with cisplatin 2 mg/kg subcutaneously once a day for 4 days
Description: Effect on inhibition of stomach contraction caused by cisplatin
Cisplatin in a dose of 2 mg/kg was administered subcutaneously into female Fischer rats (5 weeks of age) once a day for 4 days, and at the same time, HX-1920 was administered intraperitoneally or orally.
[…] For the cisplatin non-administered group and the cisplatin administered vehicle control group, 1 ml/day of a 1 % gum arabic solution was administered per rat.

[8] = 10 mg/kg/day p.o. in 2.5 % NaHCO3 over 8 days
[9] = 100 mg/kg/day p.o. in 2.5 % NaHCO3 over 8 days
[10] = 20 mg/kg orally in capsules 30 min before i.v. cisplatin (0.4 mg/kg/day 3 days, then 0.8 mg/kg/day 4 days)

CN1C(C(=O)Nc2ccccc2-c2nnn[nH]2)=C(O)c2ccccc2S1(=O)=O [HX-1920, 4-hydroxy-2-methyl-N-(2-(1H-tetrazol-5-yl)phenyl)2H-1,2-benzothiazine-3-carboxamide-1,1-dioxide]
BUN ([1]; 10 mg/kg/day i.p.): 102.8 ± 29.5 mg/dL
Creatinine ([1]; 10 mg/kg/day i.p.): 0.70 ± 0.04 mg/dL
BUN ([1]; 30 mg/kg/day i.p.): 69.6 ± 22.2 mg/dL
Creatinine ([1]; 30 mg/kg/day i.p.): 0.65 ± 0.04 mg/dL
BUN ([1]; 50 mg/kg/day p.o.): 138.1 ± 47.6 mg/dL
Creatinine ([1]; 50 mg/kg/day p.o.): 0.83 ± 0.31 mg/dL
BUN ([1]; 150 mg/kg/day p.o.): 91.1 ± 58.6 mg/dL
Creatinine ([1]; 150 mg/kg/day p.o.): 0.65 ± 0.11 mg/dL
BUN ([2]; 10 mg/kg/day p.o.): 51.1 ± 16.5 mg/dL
Creatinine ([2]; 10 mg/kg/day p.o.): 1.15 ± 0.29 mg/dL
BUN ([2]; 100 mg/kg/day p.o.): 38.0 ± 6.4 mg/dL
Creatinine ([2]; 100 mg/kg/day p.o.): 0.96 ± 0.05 mg/dL
survival (in words) ([3]; 100 mg/kg p.o., subsequent 5 days, all vehicle control rats died): all of the five rats of the HX-1920 administered group survived
BUN ([3]; 100 mg/kg/day p.o., 16 h after final administration): 78.3 ± 45.7 mg/dL
Survival ratio ([3]; 100 mg/kg/day p.o., survival over the subsequent 5 days): 100%
inhibition activity against increase in BUN and creatinine (in words) ([4]; 10 mg/kg p.o.): did not exhibit clear inhibition activity
BUN [4, 8]: 51.1 ± 16.5 mg/dL
Creatinine [4, 8]: 1.15 ± 0.29 mg/dL
BUN [4, 9]: 38.0 ± 6.1 mg/dL
Creatinine [4, 9]: 0.96 ± 0.05 mg/dL
inhibition at 100 mg/kg ([4]; read-out: inhibition activity in BUN): 38%
inhibition at 100 mg/kg ([4]; read-out: inhibition activity in creatinine): 25%
Degree of vomiting 5th day [5]: 0 (4×) and I
Degree of vomiting 6th day [5]: I (2×) and 0 (3×)
Degree of vomiting 7th day [5]: I (3×) and 0 (2×)
Vomiting manifestation ratio (%) 4th day [6, 10]: 29.4%
Vomiting manifestation ratio (%) 5th day [6, 10]: 23.5%
Vomiting manifestation ratio (%) 6th day [6, 10]: 29.4%
Vomiting manifestation ratio (%) 7th day [6, 10]: 52.9%
manifestation of vomiting (in words) ([6]; 20 mg/kg orally, compared with the vehicle control group): clearly inhibited
Diameter of center of stomach ([7]; 10 mg/kg i.p.): 0.97±0.07 mm
Diameter of center of stomach ([7]; 30 mg/kg i.p.): 1.18±0.07 mm
Diameter of center of stomach ([7]; 150 mg/kg p.o.): 1.14±0.07 mm

Source: EP0455830B1, “MEDICINE CONTAINING THIAZINE DIOXIDE DERIVATIVE” (NIPPON HYPOX LABORATORIES INCORPORATED, priority 1989, dated 1991)
